Laboratory results taken from patent US12466821B2 (Novartis AG, priority 2018, dated 2025).
Where two headings read alike, the source gives them in different places.

Experiments:
[1] = biological target: human CMV DNA polymerase UL54 (Human cytomegalovirus (strain AD169) (HHV-5) (Human herpesvirus 5), UniProt P08546); experiment: CMV polymerase biochemical assay (molecular beacon-based)
How it was run: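 Readout was beacon fluorescence (ex 480, em 535 nm), used to derive IC50. Each dNTP was at 1.25 uM, with 200 nM primer and 100 nM beacon, after a 30-min RT inhibitor preincubation. Enzyme was 625 pM for HSV UL30 (20 min RT reaction) or 100 pM for CMV UL54 (60 min RT), both sf9-expressed MBP fusions, in pH 7.5 Tris buffer with MgCl2.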

[2] = tested on: Luciferase-encoding HCMV, AD169 strain; experiment: CMV Luciferase assay (cellular herpesvirus replication); type: cell-based
How it was run: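 Neonatal human dermal fibroblasts were pretreated 1 h with compound (final 0.0159–50 μM or 0.00318–10 μM, 0.5% DMSO), then infected at MOI 1 with AD169 carrying pp28-promoter luciferase. After 72 h at 37 °C, Renilla-Glo luminescence normalized to no-virus and virus-only controls; EC50 by 4-parameter logistic model.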

Molecule `N#Cc1ccc(CNC(=O)c2ccc3n(c2=O)CCN(CC2(S(=O)(=O)C4CC4)CC2)C3=O)cc1` [Example 1, N-(4-cyanobenzyl)-2-((1-(cyclopropylsulfonyl)cyclopropyl)methyl)-1,6-dioxo-2,3,4,6-tetrahydro-1H-pyrido[1,2-a]pyrazine-7-carboxamide] has an IC50 [1] of 0.8 nM, an EC50 ([2]; Human betaherpesvirus 5, AD169, read-out: CMV-Luc Cellular EC50) of 23.2 nM and an EC50 ([2]; Human betaherpesvirus 5, AD169, read-out: EC50 Human herpesvirus CMV) of 24 nM.
